Measurements from patent publication US12692254B2, “Benzimidazole inhibitors of PAD enzymes” (BRISTOL-MYERS SQUIBB COMPANY, priority 2018, dated 2026).

Biological target: human PAD4 (hPAD4) (Homo sapiens, UniProt Q9UM07)
Test: RFMS human PAD4 functional assay (rapid-fire mass spectrum)
Assay type: biochemical
Details: 5 nM hPAD4 enzyme, 250 μM BAEE, 50 μM Calcium; 30 min preincubation, 90 min reaction at 37° C.
Procedure, shortened: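 PAD4 (10 nM) preincubated 30 min with compound (top final 50 μM), then BAEE substrate added in pH 7.5 HEPES buffer with DTT, 50 μM calcium, TPEN; 90 min at 37° C. After TCA quench, citrulline derivatized with phenyl glyoxal (4 mM final, 30 min, 37° C) and quantified by RapidFire MS against internal standard.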

Chain of human PAD4 (hPAD4) (Q9UM07 whole entry): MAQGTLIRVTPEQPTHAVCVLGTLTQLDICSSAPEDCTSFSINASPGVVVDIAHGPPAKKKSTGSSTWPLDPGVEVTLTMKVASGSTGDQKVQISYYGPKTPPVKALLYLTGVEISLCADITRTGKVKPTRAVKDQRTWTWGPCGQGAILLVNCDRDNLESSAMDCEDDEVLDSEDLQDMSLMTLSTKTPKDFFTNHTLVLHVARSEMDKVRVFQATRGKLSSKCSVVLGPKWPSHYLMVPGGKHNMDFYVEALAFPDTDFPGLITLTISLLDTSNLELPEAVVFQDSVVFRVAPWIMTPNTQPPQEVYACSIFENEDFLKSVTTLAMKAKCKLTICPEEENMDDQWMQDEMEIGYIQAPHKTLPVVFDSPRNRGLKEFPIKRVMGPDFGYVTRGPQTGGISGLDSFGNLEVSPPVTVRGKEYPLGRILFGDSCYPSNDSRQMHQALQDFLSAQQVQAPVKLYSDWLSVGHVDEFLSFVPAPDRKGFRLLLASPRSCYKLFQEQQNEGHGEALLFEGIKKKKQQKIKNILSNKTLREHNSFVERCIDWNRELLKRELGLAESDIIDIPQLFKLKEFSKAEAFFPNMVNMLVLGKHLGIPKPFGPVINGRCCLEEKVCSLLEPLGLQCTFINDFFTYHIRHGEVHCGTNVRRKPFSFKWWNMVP

Row | IC50 | Structure (SMILES)
1 | 102 nM | COc1cc(C(=O)N2C[C@H]3CC[C@@H]2[C@@H]3N)cc2nc(-c3cc4cccnc4n3CC3CC3)n(CC3CN(C(=O)c4ccnc(N)n4)C3)c12 [Example 125, (1R,4R,7R)-2-(1-{[1-(2-aminopyrimidine-4-carbonyl)azetidin-3-yl]methyl}-2-[1-(cyclopropylmethyl)-1H-pyrrolo[2,3-b]pyridin-2-yl]-7-methoxy-1H-1,3-benzodiazole-5-carbonyl)-2-azabicyclo[2.2.1]heptan-7-amine]
2 | 108 nM | COc1cc(C(=O)N2C[C@H]3CC[C@@H]2[C@@H]3N)cc2nc(-c3cc4cccnc4n3CC3CC3)n(CC3CN(C(=O)c4ccnc(Cl)n4)C3)c12 [Example 126, (1R,4R,7R)-2-(1-{[1-(2-chloropyrimidine-4-carbonyl)azetidin-3-yl]methyl}-2-[1-(cyclopropylmethyl)-1H-pyrrolo[2,3-b]pyridin-2-yl]-7-methoxy-1H-1,3-benzodiazole-5-carbonyl)-2-azabicyclo[2.2.1]heptan-7-amine]
3 | 109 nM | COc1cc(C(=O)N2C[C@H]3CC[C@@H]2[C@@H]3N)cc2nc(-c3cc4cccnc4n3CC3CC3)n(CC3CN(C(=O)c4cnc(C#N)nc4)C3)c12 [Example 127, 5-[3-({5-[(1R,4R,7R)-7-amino-2-azabicyclo[2.2.1]heptane-2-carbonyl]-2-[1-(cyclopropylmethyl)-1H-pyrrolo[2,3-b]pyridin-2-yl]-7-methoxy-1H-1,3-benzodiazol-1-yl}methyl)azetidine-1-carbonyl]pyrimidine-2-carbonitrile]
4 | 109 nM | COc1cc(C(=O)N2CC3CCC2[C@@H]3N)cc2nc(-c3cc4cccnc4n3CC3CC3)n(CC3CN(C(=O)[C@@H]4C[C@H]4C)C3)c12 (stereo partly drawn) [Example 128, (1R,4R,7R)-2-{2-[1-(cyclopropylmethyl)-1H-pyrrolo[2,3-b]pyridin-2-yl]-7-methoxy-1-({1-[(1R,2R)-2-methylcyclopropanecarbonyl]aze-tidin-3-yl}methyl)-1H-1,3-benzodiazole-5-carbonyl}-2-azabicyclo[2.2.1]heptan-7-amine]
5 | 116 nM | COC(=O)c1cc(C(=O)N2CC(Cn3c(-c4cc5cccnc5n4CC4CC4)nc4cc(C(=O)N5C[C@H]6CC[C@@H]5[C@@H]6N)cc(OC)c43)C2)ccn1 [Example 129, methyl 4-[3-({5-[(1R,4R,7R)-7-amino-2-azabicyclo[2.2.1]heptane-2-carbonyl]-2-[1-(cyclopropylmethyl)-1H-pyrrolo[2,3-b]pyridin-2-yl]-7-methoxy-1H-1,3-benzodiazol-1-yl}methyl)azetidine-1-carbonyl]pyridine-2-carboxylate]
6 | 128 nM | CCOC(=O)N1CC(Cn2c(-c3cc4cccnc4n3CC3CC3)nc3cc(C(=O)N4C[C@H]5CC[C@@H]4[C@@H]5N)cc(OC)c32)C1 [Example 130, ethyl 3-({5-[(1R,4R,7R)-7-amino-2-azabicyclo[2.2.1]heptane-2-carbonyl]-2-[1-(cyclopropylmethyl)-1H-pyrrolo[2,3-b]pyridin-2-yl]-7-methoxy-1H-1,3-benzodiazol-1-yl}methyl)azetidine-1-carboxylate]
7 | 138 nM | N[C@@H]1[C@@H]2CC[C@H]1N(C(=O)c1cc(Cl)c3c(c1)nc(-c1cc4cccnc4n1CC1CC1)n3CC1CN(C(=O)c3ccncc3)C1)C2 [Example 131, (1R,4R,7R)-2-{7-chloro-2-[1-(cyclopropylmethyl)-1H-pyrrolo[2,3-b]pyridin-2-yl]-1-{[1-(pyridine-4-carbonyl)azetidin-3-yl]methyl}-1H-1,3-benzodiazole-5-carbonyl}-2-azabicyclo[2.2.1]heptan-7-amine]
8 | 148 nM | COC(=O)N1CC(Cn2c(-c3cc4cccnc4n3CC3CC3)nc3cc(C(=O)N4C[C@H]5CC[C@@H]4[C@@H]5N)cc(OC)c32)C1 [Example 132, methyl 3-({5-[(1R,4R,7R)-7-amino-2-azabicyclo[2.2.1]heptane-2-carbonyl]-2-[1-(cyclopropylmethyl)-1H-pyrrolo[2,3-b]pyridin-2-yl]-7-methoxy-1H-1,3-benzodiazol-1-yl}methyl)azetidine-1-carboxylate]
9 | 165 nM | C#CC(=O)N1CC(Cn2c(-c3cc4cccnc4n3CC3CC3)nc3cc(C(=O)N4CC5CCC4[C@@H]5N)cc(OC)c32)C1 (stereo partly drawn) [Example 133, 1-[3-({5-[(1R,4R,7R)-7-amino-2-azabicyclo[2.2.1]heptane-2-carbonyl]-2-[1-(cyclopropylmethyl)-1H-pyrrolo[2,3-b]pyridin-2-yl]-7-methoxy-1H-1,3-benzodiazol-1-yl}methyl)azetidin-1-yl]prop-2-yl-1-one]
10 | 193 nM | CCC(=O)N1CC(Cn2c(-c3cc4cccnc4n3CC3CC3)nc3cc(C(=O)N4C[C@H]5CC[C@@H]4[C@@H]5N)cc(OC)c32)C1 [Example 134, 1-[3-({5-[(1R,4R,7R)-7-amino-2-azabicyclo[2.2.1]heptane-2-carbonyl]-2-[1-(cyclopropylmethyl)-1H-pyrrolo[2,3-b]pyridin-2-yl]-7-methoxy-1H-1,3-benzodiazol-1-yl}methyl)azetidin-1-yl]propan-1-one]
11 | 8 nM | COc1cc(C(=O)N2C[C@H]3CC[C@@H]2[C@@H]3N)cc2nc(-c3cc4ccccc4n3CC3CC3)n(CC3CN(C(=O)c4ccc(C#N)c(F)c4)C3)c12 [Example 135, 4-[3-({5-[(1R,4R,7R)-7-amino-2-azabicyclo[2.2.1]heptane-2-carbonyl]-2-[1-(cyclopropylmethyl)-1H-indol-2-yl]-7-methoxy-1H-1,3-benzodiazol-1-yl}methyl)azetidine-1-carbonyl]-2-fluorobenzonitrile]
12 | 11 nM | N[C@@H]1C2CCC1N(C(=O)c1cc(F)c3c(c1)nc(-c1cc4ccccc4n1CC1CC1)n3CC1CN(C(=O)c3ccccc3)C1)C2 (stereo partly drawn) [Example 136, (1R,4R,7R)-2-{1-[(1-benozylazetidin-3-yl)methyl]-2-[1-(cyclopropylmethyl)-1H-indol-2-yl]-7-fluoro-1H-1,3-benzodiazole-5-carbonyl}-2-azabicyclo[2.2.1]heptan-7-amine]
13 | 11 nM | COc1cc(C(=O)N2C[C@H]3CC[C@@H]2[C@@H]3N)cc2nc(-c3cc4ccccc4n3CC3CC3)n(CC3CN(C(=O)c4cccc(C(=O)O)c4)C3)c12 [Example 137, 3-[3-({5-[(1R,4R,7R)-7-amino-2-azabicyclo[2.2.1]heptane-2-carbonyl]-2-[1-(cyclopropylmethyl)-1H-indol-2-yl]-7-methoxy-1H-1,3-benzodiazol-1-yl}methyl)azetidine-1-carbonyl]benzoic acid]
14 | 11 nM | COc1cc(C(=O)N2C[C@H]3CC[C@@H]2[C@@H]3N)cc2nc(-c3cc4ccccc4n3CC3CC3)n(CC3CN(C(=O)c4ccncc4)C3)c12 [Example 138, (1R,4R,7R)-2-{2-[1-(cyclopropylmethyl)-1H-indol-2-yl]-7-methoxy-1-{[1-(pyridine-4-carbonyl)azetidin-3-yl]methyl}-1H-1,3-benzodiazole-5-carbonyl}-2-azabicyclo[2.2.1]heptan-7-amine]
15 | 12 nM | COc1cc(C(=O)N2CC3CCC2[C@@H]3N)cc2nc(-c3cc4ccccc4n3CC3CC3)n(CC3CN(C(=O)C4CCC(F)(F)C4)C3)c12 (stereo partly drawn) [Example 139, (1R,4R,7R)-2-{2-[1-(cyclopropylmethyl)-1H-indol-2-yl]-1-{[1-(3,3-difluorocyclopentanecarbonyl)aze-tidin-3-yl]methyl}-7-methoxy-1H-1,3-benzodiazole-5-carbonyl}-2-azabicyclo[2.2.1]heptan-7-amine]
16 | 14 nM | COc1cc(C(=O)N2C[C@H]3CC[C@@H]2[C@@H]3N)cc2nc(-c3cc4ccccc4n3CC3CC3)n(CC3CN(C(=O)c4ccc(O)cc4)C3)c12 [Example 140, 4-[3-({5-[(1R,4R,7R)-7-amino-2-azabicyclo[2.2.1]heptane-2-carbonyl]-2-[1-(cyclopropylmethyl)-1H-indol-2-yl]-7-methoxy-1H-1,3-benzodiazol-1-yl}methyl)azetidine-1-carbonyl]phenol]
17 | 14 nM | COc1cc(C(=O)N2C[C@H]3CC[C@@H]2[C@@H]3N)cc2nc(-c3cc4ccccc4n3CC3CC3)n(CC3CN(C(=O)c4cccc(C#N)c4)C3)c12 [Example 141, 3-[3-({5-[(1R,4R,7R)-7-amino-2-azabicyclo[2.2.1]heptane-2-carbonyl]-2-[1-(cyclopropylmethyl)-1H-indol-2-yl]-7-methoxy-1H-1,3-benzodiazol-1-yl}methyl)azetidine-1-carbonyl]benzonitrile]
18 | 14 nM | COc1cc(C(=O)N2C[C@H]3CC[C@@H]2[C@@H]3N)cc2nc(-c3cc4ccccc4n3CC3CC3)n(CC3CN(C(=O)c4nnn(C)n4)C3)c12 [Example 142, (1R,4R,7R)-2-{2-[1-(cyclopropylmethyl)-1H-indol-2-yl]-7-methoxy-1-{[1-(2-methyl-2H-1,2,3,4-tetrazole-5-carbonyl)azetidin-3-yl]methyl}-1H-1,3-benzodiazole-5-carbonyl}-2-azabicyclo[2.2.1]heptan-7-amine]
19 | 23 nM | N[C@@H]1C2CCC1N(C(=O)c1cc(Cl)c3c(c1)nc(-c1cc4ccccc4n1CC1CC1)n3CC1CN(C(=O)c3ccccc3)C1)C2 (stereo partly drawn) [Example 143, (1R,4R,7R)-2-{1-[(1-benozylazetidin-3-yl)methyl]-7-chloro-2-[1-(cyclopropylmethyl)-1H-indol-2-yl]-1H-1,3-benzodiazole-5-carbonyl}-2-azabicyclo[2.2.1]heptan-7-amine]
20 | 17 nM | COc1cc(C(=O)N2C[C@H]3CC[C@@H]2[C@@H]3N)cc2nc(-c3cc4ccccc4n3CC3CC3)n(CC3CN(C(=O)C4CCCC4)C3)c12 [Example 144, (1R,4R,7R)-2-{1-[(1-cyclopentanecarbonylazetidin-3-yl)methyl]-2-[1-(cyclopropylmethyl)-1H-indol-2-yl]-7-methoxy-1H-1,3-benzodiazole-5-carbonyl}-2-azabicyclo[2.2.1]heptan-7-amine]
21 | 18 nM | COc1cc(C(=O)N2C[C@H]3CC[C@@H]2[C@@H]3N)cc2nc(-c3cc4ccccc4n3CC3CC3)n(CC3CN(C(=O)c4ccccc4)C3)c12 [Example 145, (1R,4R,7R)-2-{1-[(1-benzoylazetidin-3-yl)methyl]-2-[1-(cyclopropylmethyl)-1H-indol-2-yl]-7-methoxy-1H-1,3-benzodiazole-5-carbonyl}-2-azabicyclo[2.2.1]heptan-7-amine]
